According to patent publication US8815909B2, “Diaminocyclohexane compounds and uses thereof” (Bristol-Myers Squibb Company, priority 2011, dated 2014):

Biological target: T1, human Y4 receptor (Homo sapiens, UniProt P50391)
T1 construct: expressed in transfected cells
Test: NPY4 cAMP HTRF Agonist Assay (inhibitory cAMP assay, Gi activation by Y4 agonism)
Assay type: cell-based
Settings: human Y4 stable CHO clonal cells, forskolin + IBMX; read-out: NPY4 cAMP HTRF Agonist Assay EC50
Protocol: NPY4 cAMP HTRF Agonist Assay
The functionality of the compound at Y4 receptor was analyzed using a inhibitory cAMP assay (CISBIO, HTRF cAMP kit #62AM4PEC) to measure the Gi activation by Y4 agonism.
The human Y4 stable CHO clonal cells were maintained in culture medium (F-12 containing 10% Fetal Bovine Serum, […] GENETICIN®, […] Zeocin). Before the experiment, 5 μL of 1 uM Forskolin (Sigma, # F6886) and 100 uM IBMX (Sigma, # I5879) in PBS buffer were added into 384-well plates (PE, Proxi-plate) that were pre-dotted with 100 nL compounds. The cells were removed from the flasks by Cellstripper, counted and adjusted to 1.0×10^6 cells/mL in PBS buffer, and added 5 μL/well (5000 cells/well) into the above 384-well plates. The cells were then covered and incubated for 30 minutes at room temperature. After incubation, 5 μL/well of D2-conjugate in HTRF lysis buffer was first added, followed by adding 5 μL/well of anti-cAMP Cryptate in HTRF lysis buffer. The plates were incubated for another 1 hour at room temperature and read on the EnVision Multilabel Plate Reader.
Compounds described herein were tested in the above assay.

T1 sequence (P50391 whole entry): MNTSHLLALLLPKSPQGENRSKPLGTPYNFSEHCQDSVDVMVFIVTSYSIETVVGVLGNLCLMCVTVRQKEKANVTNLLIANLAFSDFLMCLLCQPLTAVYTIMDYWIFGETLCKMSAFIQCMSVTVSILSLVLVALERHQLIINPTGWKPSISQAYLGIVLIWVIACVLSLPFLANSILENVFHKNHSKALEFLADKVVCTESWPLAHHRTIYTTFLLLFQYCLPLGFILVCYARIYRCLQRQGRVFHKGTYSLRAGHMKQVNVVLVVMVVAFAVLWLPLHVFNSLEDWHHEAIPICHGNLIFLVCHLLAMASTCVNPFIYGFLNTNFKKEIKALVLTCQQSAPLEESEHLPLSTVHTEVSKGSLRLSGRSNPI

Row | Compound | EC50 [µM]
1 | O=[N+]([O-])c1ccc(N2CCC[C@H](N[C@@H]3CCCC[C@H]3Nc3ncc(-c4ccc(OC(F)(F)F)cc4)o3)C2)cc1 [Example 1, (1R,2R)—N1-((S)-1-(4-Nitrophenyl)piperidin-3-yl)-N2-(5-(4-(trifluoromethoxy)phenyl)oxazol-2-yl)cyclohexane-1,2-diamine] | 0.006
2 | O=[N+]([O-])c1ccc(N2CCC[C@H](N[C@@H]3CCCC[C@H]3Nc3ncc(-c4ccccc4)o3)C2)cc1 [Example 2, (1R,2R)—N1-((S)-1-(4-Nitrophenyl)piperidin-3-yl)-N2-(5-phenyloxazol-2-yl)cyclohexane-1,2-diamine] | 0.003
3 | O=[N+]([O-])c1ccc(N2CCC[C@H](N[C@@H]3CCCC[C@H]3Nc3nc4ccccc4o3)C2)cc1 [Example 3, (1R,2R)—N1-(Benzo[d]oxazol-2-yl)-N2-((S)-1-(4-nitrophenyl)piperidin-3-yl)cyclohexane-1,2-diamine] | 0.069
4 | O=[N+]([O-])c1ccc(N2CCC[C@H](N[C@@H]3CCCC[C@H]3Nc3nc4cc(OC(F)(F)F)ccc4o3)C2)cc1 [Example 4, (1R,2R)—N1-((S)-1-(4-Nitrophenyl)piperidin-3-yl)-N2-(5-(trifluoromethoxy)benzo[d]oxazol-2-yl)cyclohexane-1,2-diamine] | 0.236
5 | O=[N+]([O-])c1ccc(N2C[C@@H]3C[C@H](N[C@@H]4CCCC[C@H]4Nc4ncc(-c5ccc(OC(F)(F)F)cc5)o4)[C@H]2C3)cc1 [Example 5, (1R,2R)—N1-((1R,4R,6S)-2-(4-Nitrophenyl)-2-azabicyclo[2.2.1]heptan-6-yl)-N2-(5-(4-(trifluoromethoxy)phenyl)oxazol-2-yl)cyclohexane-1,2-diamine] | 0.009
6 | O=[N+]([O-])c1ccc(N2C[C@@H]3C[C@H](N[C@@H]4CCCC[C@H]4Nc4ncc(-c5ccccc5)o4)[C@H]2C3)cc1 [Example 6, (1R,2R)—N1-((1R,4R,6S)-2-(4-Nitrophenyl)-2-azabicyclo[2.2.1]heptan-6-yl)-N2-(5-phenyloxazol-2-yl)cyclohexane-1,2-diamine] | 0.006
7 | O=[N+]([O-])c1ccc(N2CCC[C@H](N[C@@H]3CCCC[C@H]3Nc3ncc(-c4ccc(C(F)(F)F)cc4)o3)C2)cc1 [Example 7, (1R,2R)—N1-((S)-1-(4-Nitrophenyl)piperidin-3-yl)-N2-(5-(4-(trifluoromethyl)phenyl)oxazol-2-yl)cyclohexane-1,2-diamine] | 0.185
8 | O=[N+]([O-])c1ccc(N2CCC[C@H](N[C@@H]3CCCC[C@H]3Nc3ncc(-c4ccc(OC(F)(F)F)c(F)c4)o3)C2)cc1 [Example 8, (1R,2R)—N1-(5-(3-Fluoro-4-(trifluoromethoxy)phenyl)oxazol-2-yl)-N2-((S)-1-(4-nitrophenyl)piperidin-3-yl)cyclohexane-1,2-diamine] | 0.016
9 | O=[N+]([O-])c1ccc(N2CCC[C@H](N[C@@H]3CCCC[C@H]3Nc3ncc(-c4ccccc4F)o3)C2)cc1 [Example 9, (1R,2R)—N1-(5-(2-Fluorophenyl)oxazol-2-yl)-N2-((S)-1-(4-nitrophenyl)piperidin-3-yl)cyclohexane-1,2-diamine] | 0.004
10 | O=[N+]([O-])c1ccc(N2CCC[C@H](N[C@@H]3CCCC[C@H]3Nc3ncc(-c4ccc(F)c(F)c4)o3)C2)cc1 [Example 10, (1R,2R)—N1-(5-(3,4-Difluorophenyl)oxazol-2-yl)-N2-((S)-1-(4-nitrophenyl)piperidin-3-yl)cyclohexane-1,2-diamine] | 0.026
11 | Cc1cc(OC(F)(F)F)ccc1-c1cnc(N[C@@H]2CCCC[C@H]2N[C@H]2CCCN(c3ccc([N+](=O)[O-])cc3)C2)o1 [Example 11, (1R,2R)—N1-(5-(2-Methyl-4-(trifluoromethoxy)phenyl)oxazol-2-yl)-N2-((S)-1-(4-nitrophenyl)piperidin-3-yl)cyclohexane-1,2-diamine] | 0.049
12 | O=[N+]([O-])c1ccc(N2CCC[C@H](N[C@@H]3CCCC[C@H]3Nc3ncc(-c4ccc(O)cc4)o3)C2)cc1 [Example 12, 4-(2-((1R,2R)-2-((S)-1-(4-Nitrophenyl)piperidin-3-ylamino)cyclohexylamino)oxazol-5-yl)phenol] | 0.001
